The results in this text go back to US11459329B2, “Imidazopyridazine and imidazopyridine compounds and uses thereof” (Incyte Corporation, priority 2018, dated 2022).

Like-named read-outs stand apart in the source and are kept apart here.

This assay deals with ALK2 (aa 147-end) (Homo sapiens (Human), UniProt Q04771). Briefly: ALK2 HTRF Assay. In kind it is biochemical. The protocol:
The enzymatic assays were conducted in white 384-well polystyrene plates in a final volume of 8 μL. The inhibitors were serially diluted in DMSO and added to the plate wells prior to addition of the other reaction components. The assays were carried out at 25° C. in the assay buffer (50 mM HEPES, pH 7.0, 10% Glycerol, 0.01% Brij50, 10 mM MgCl2, 1 mM EGTA, 5 mM DTT, and 0.01% BSA), containing 50 nM LANCE Ultra ULight™-DNA Topoisomerase 2-alpha peptide (Perkin Elmer TRF0130), and 3 μM ATP. The final concentration of DMSO in the assay was 1% and the enzyme concentration was 0.5 nM for ALK2. […] […] IC50 determination was performed by fitting percent control activity versus the log of the inhibitor concentration using the IDBS XLFit and GraphPad Prism 5.0 software.
In general terms: Time-resolved FRET reads energy transfer from a long-lived donor to a nearby acceptor.

The mark [1] stands for this setting: 3 μM ATP, 0.5 nM ALK2, 2 hr, 25° C., read-out: ALK2 IC50.

In general, IC50 refers to the concentration that gives 50% inhibition.

Chain of ALK2 (aa 147-end) (Q04771 147-509): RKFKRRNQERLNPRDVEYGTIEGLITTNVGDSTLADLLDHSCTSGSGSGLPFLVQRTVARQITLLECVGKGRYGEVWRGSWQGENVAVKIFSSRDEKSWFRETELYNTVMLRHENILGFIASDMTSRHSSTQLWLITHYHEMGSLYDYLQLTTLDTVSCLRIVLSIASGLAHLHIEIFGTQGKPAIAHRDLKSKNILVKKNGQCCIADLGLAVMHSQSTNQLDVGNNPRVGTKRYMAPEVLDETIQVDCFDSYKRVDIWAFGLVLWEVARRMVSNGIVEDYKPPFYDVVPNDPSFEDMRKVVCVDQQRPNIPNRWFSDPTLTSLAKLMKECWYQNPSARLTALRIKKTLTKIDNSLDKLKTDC

For the compound `Cc1nn2c(-c3ccnc4c3CCN4C(=O)c3ccncc3)cnc2cc1-c1cnn(C2CCOCC2)c1` [Example 32, (4-(6-methyl-7-(1-(tetrahydro-2H-pyran-4-yl)-1H-pyrazol-4-yl)imidazo[1,2-b]pyridazin-3-yl)-2,3-dihydro-1H-pyrrolo[2,3-b]pyridin-1-yl)(pyridin-4-yl)methanone], the IC50 under setting [1] lay within 5 to 100 nM.
For the compound `NC(=O)c1nn2c(-c3ccnc4ccccc34)cnc2cc1-c1ccc(N2CCNCC2)cc1` [Example 5, 7-(4-(Piperazin-1-yl)phenyl)-3-(quinolin-4-yl)imidazo[1,2-b]pyridazine-6-carboxamide], the IC50 under setting [1] was in the range of 5 to 100 nM.
Same read-out and setting: the same measure for `Cc1nn2c(-c3ccnc4nc(-c5ccn(C)n5)ccc34)cnc2cc1-c1cnn(C(C)C)c1` [Example 45, 5-(7-(1-Isopropyl-1H-pyrazol-4-yl)-6-methylimidazo[1,2-b]pyridazin-3-yl)-2-(1-methyl-1H-pyrazol-3-yl)-1,8-naphthyridine]: 1 to 5 nM; for `Cc1nn2c(-c3ccnc4cc(C(O)c5cc(F)cc(F)c5)ccc34)cnc2cc1-c1ccc(N2CCNCC2)cc1` (centres unmarked) [Example 25, (3,5-difluorophenyl)(4-(6-methyl-7-(4-(piperazin-1-yl)phenyl)imidazo[1,2-b]pyridazin-3-yl)quinolin-7-yl)methanol]: 1 to 5 nM; for `Cc1nn2c(-c3ccnc4ccccc34)cnc2cc1-c1ccc(N2CCNCC2)cc1` [Example 1, 4-(6-Methyl-7-(4-(piperazin-1-yl)phenyl)imidazo[1,2-b]pyridazin-3-yl)quinoline]: below 1 nM.
Same read-out and setting: the figure for `CCOC(=O)N1CCN(C(=O)c2nn3c(-c4ccnc5ccccc45)cnc3cc2-c2ccc(N3CCNCC3)cc2)CC1` [Example 4, Ethyl 4-(7-(4-(piperazin-1-yl)phenyl)-3-(quinolin-4-yl)imidazo[1,2-b]pyridazine-6-carbonyl)piperazine-1-carboxylate] is 5 to 100 nM.
In turn, `Cc1nn2c(-c3ccnc4nc(-c5cnn(C)c5)ccc34)cnc2cc1-c1cnn(C(C)C)c1` [Example 51, 5-(7-(1-Isopropyl-1H-pyrazol-4-yl)-6-methylimidazo[1,2-b]pyridazin-3-yl)-2-(1-methyl-1H-pyrazol-4-yl)-1,8-naphthyridine] had a half-maximal inhibitory concentration (IC50) of 1 to 5 nM.
With `Cc1nn2c(-c3ccnc4cc(-c5ccncc5)ccc34)cnc2cc1-c1ccc(N2CCN(CCO)CC2)cc1` [Example 11, 2-(4-(4-(6-Methyl-3-(7-(pyridin-4-yl)quinolin-4-yl)imidazo[1,2-b]pyridazin-7-yl)phenyl)piperazin-1-yl)ethan-1-ol], the concentration for half-maximal inhibition (IC50) under setting [1] was below 1 nM.
On the same count and under the same terms, the same measure for `Cc1cnn(-c2ccc3c(-c4cnc5cc(-c6ccc(CN(C)C)cc6)c(C)nn45)ccnc3n2)n1` [Example 63, N,N-dimethyl-1-(4-(6-methyl-3-(7-(4-methyl-2H-1,2,3-triazol-2-yl)-1,8-naphthyridin-4-yl)imidazo[1,2-b]pyridazin-7-yl)phenyl)methanamine]: 1 to 5 nM.
On the same count and under the same terms, the same measure for `Cc1nn2c(-c3ccnc4cc(CN5CCOCC5)ccc34)cnc2cc1-c1ccc(N2CCNCC2)cc1` [Example 24, 4-((4-(6-methyl-7-(4-(piperazin-1-yl)phenyl)imidazo[1,2-b]pyridazin-3-yl)quinolin-7-yl)methyl)morpholine]: 5 to 100 nM; for `CCn1cnc(-c2ccc3c(-c4cnc5cc(-c6ccc(CN7CCC(C)(O)CC7)cc6)c(C)nn45)ccnc3n2)c1` [Example 72, 1-(4-(3-(7-(1-Ethyl-1H-imidazol-4-yl)-1,8-naphthyridin-4-yl)-6-methylimidazo[1,2-b]pyridazin-7-yl)benzyl)-4-methylpiperidin-4-ol]: below 1 nM; for `Cc1cnn(-c2ccc3c(-c4cnc5cc(-c6cnn(C(C)C)c6)c(C)nn45)ccnc3n2)n1` [Example 61, 5-(7-(1-Isopropyl-1H-pyrazol-4-yl)-6-methylimidazo[1,2-b]pyridazin-3-yl)-2-(4-methyl-2H-1,2,3-triazol-2-yl)-1,8-naphthyridine]: 1 to 5 nM.
Same read-out and setting: the figure for `Cc1cn2c(-c3ccc(C(N)=O)c(F)c3)cnc2cc1-c1cnn(C2CCNCC2)c1` [Example 36, 2-fluoro-4-(6-methyl-7-(1-(piperidin-4-yl)-1H-pyrazol-4-yl)imidazo[1,2-a]pyridin-3-yl)benzamide] is below 1 nM; for `Cc1cnn(-c2ccc3c(-c4cnc5cc(-c6ccc(CN7CC(C)(O)C7)cc6)c(C)nn45)ccnc3n2)n1` [Example 69, 3-methyl-1-(4-(6-methyl-3-(7-(4-methyl-2H-1,2,3-triazol-2-yl)-1,8-naphthyridin-4-yl)imidazo[1,2-b]pyridazin-7-yl)benzyl)azetidin-3-ol] it is 1 to 5 nM.
Turning to `C[C@]1(O)CC[C@H](NC(=O)c2nn3c(-c4ccnc5ccccc45)cnc3cc2-c2ccc(N3CCNCC3)cc2)CC1` [Example 3, N-((1R,4R)-4-Hydroxy-4-methylcyclohexyl)-7-(4-(piperazin-1-yl)phenyl)-3-(quinolin-4-yl)imidazo[1,2-b]pyridazine-6-carboxamide], the IC50 under setting [1] lay in the range of 5 to 100 nM.
On to `Cc1nn2c(-c3ccnc4cc(-c5ccncc5)ccc34)cnc2cc1-c1ccc(N2CCN(C)CC2=O)cc1` [Example 12, 4-Methyl-1-(4-(6-methyl-3-(7-(pyridin-4-yl)quinolin-4-yl)imidazo[1,2-b]pyridazin-7-yl)phenyl)piperazin-2-one], for which, under setting [1], the IC50 was in the range of 5 to 100 nM.
Still for that read-out and setting: the figure for `Cc1nn2c(-c3ccnc4nc(-c5ccccn5)ccc34)cnc2cc1-c1cnn([C@H]2CC[C@H](O)CC2)c1` [Example 37, (1R,4R)-4-(4-(6-Methyl-3-(7-(pyridin-2-yl)-1,8-naphthyridin-4-yl)imidazo[1,2-b]pyridazin-7-yl)-1H-pyrazol-1-yl)cyclohexan-1-ol] is below 1 nM; for `Cc1cnn(-c2ccc3c(-c4cnc5cc(-c6ccc(CN(C)C)cc6)c(C)nn45)ccnc3n2)n1` [Example 65, N,N-dimethyl-1-(4-(6-methyl-3-(7-(4-methyl-2H-1,2,3-triazol-2-yl)-1,8-naphthyridin-4-yl)imidazo[1,2-b]pyridazin-7-yl)phenyl)methanamine] it is 1 to 5 nM; for `Cc1nn2c(-c3ccnc4nc(-c5cnccn5)ccc34)cnc2cc1-c1cnn(C2CCOCC2)c1` [Example 44, 5-(6-Methyl-7-(1-(tetrahydro-2H-pyran-4-yl)-1H-pyrazol-4-yl)imidazo[1,2-b]pyridazin-3-yl)-2-(pyrazin-2-yl)-1,8-naphthyridine] it is 1 to 5 nM.
On the same count and under the same terms, the figure for `CCn1cnc(-c2ccc3c(-c4cnc5cc(-c6ccc(CN7CCOCC7)cc6)c(C)nn45)ccnc3n2)c1` [Example 53, 4-(4-(3-(7-(1-Ethyl-1H-imidazol-4-yl)-1,8-naphthyridin-4-yl)-6-methylimidazo[1,2-b]pyridazin-7-yl)benzyl)morpholine] is 1 to 5 nM.
The same measure, in the same setting: the same measure for `Cc1nn2c(-c3ccnc4cc(-c5ccncc5)ccc34)cnc2cc1-c1ccc(CN2CCC[C@H]2C)c(F)c1` [Example 15, (R)-4-(7-(3-fluoro-4-((2-methylpyrrolidin-1-yl)methyl)phenyl)-6-methylimidazo[1,2-b]pyridazin-3-yl)-7-(pyridin-4-yl)quinoline]: 1 to 5 nM.
Take `CCn1cnc(-c2ccc3c(-c4cnc5cc(-c6ccc(CN7CCO[C@@H](C)C7)cc6)c(C)nn45)ccnc3n2)c1` [Example 58, (S)-4-(4-(3-(7-(1-ethyl-1H-imidazol-4-yl)-1,8-naphthyridin-4-yl)-6-methylimidazo[1,2-b]pyridazin-7-yl)benzyl)-2-methylmorpholine]: the half-maximal inhibitory concentration (IC50) under setting [1] is below 1 nM.
With `COCc1nn2c(-c3ccnc4ccccc34)cnc2cc1-c1ccc(N2CCNCC2)cc1` [Example 8, 4-(6-(Methoxymethyl)-7-(4-(piperazin-1-yl)phenyl)imidazo[1,2-b]pyridazin-3-yl)quinoline], the IC50 was in the range of 1 to 5 nM.
In turn, `Cc1nn2c(-c3ccnc4cc(C#N)ccc34)cnc2cc1-c1ccc(N2CCNCC2)cc1` [Example 30, 4-(6-methyl-7-(4-(piperazin-1-yl)phenyl)imidazo[1,2-b]pyridazin-3-yl)quinoline-7-carbonitrile] came in with a 50% inhibitory concentration (IC50) of 5 to 100 nM.
Take `CCn1cnc(-c2ccc3c(-c4cnc5cc(-c6ccc(CN7CCO[C@H](CO)C7)cc6)c(C)nn45)ccnc3n2)c1` [Example 59, (S)-(4-(4-(3-(7-(1-ethyl-1H-imidazol-4-yl)-1,8-naphthyridin-4-yl)-6-methylimidazo[1,2-b]pyridazin-7-yl)benzyl)morpholin-2-yl)methanol]: under setting [1], the 50% inhibitory concentration (IC50) fell in the range of 1 to 5 nM.
Same read-out and setting: the same measure for `CCn1cnc(-c2ccc3c(-c4cnc5cc(-c6ccc(CN7CCCC7)cc6)c(C)nn45)ccnc3n2)c1` [Example 52, 2-(1-Ethyl-1H-imidazol-4-yl)-5-(6-methyl-7-(4-(pyrrolidin-1-ylmethyl)phenyl)imidazo[1,2-b]pyridazin-3-yl)-1,8-naphthyridine]: below 1 nM; for `Cc1nn2c(-c3ccnc4cc(-c5ccnc(CO)c5)ccc34)cnc2cc1-c1ccc(N2CCNCC2)cc1` [Example 19, (4-(4-(6-methyl-7-(4-(piperazin-1-yl)phenyl)imidazo[1,2-b]pyridazin-3-yl)quinolin-7-yl)pyridin-2-yl)methanol]: 1 to 5 nM.
The same measure, in the same setting: the same measure for `Cc1cnn(-c2ccc3c(-c4cnc5cc(-c6ccc(CN7CCOCC7)cc6)c(C)nn45)ccnc3n2)n1` [Example 64, 4-(4-(6-Methyl-3-(7-(4-methyl-2H-1,2,3-triazol-2-yl)-1,8-naphthyridin-4-yl)imidazo[1,2-b]pyridazin-7-yl)benzyl)morpholine]: 1 to 5 nM.
Consider `OCc1nn2c(-c3ccnc4ccccc34)cnc2cc1-c1ccc(N2CCNCC2)cc1` [Example 7, (7-(4-(Piperazin-1-yl)phenyl)-3-(quinolin-4-yl)imidazo[1,2-b]pyridazin-6-yl)methanol], for which, under setting [1], the concentration for half-maximal inhibition (IC50) was below 1 nM.
